Measured values published in patent US9174995B2, “Pyrrolotriazinone derivatives” (Merck Patent GmbH, priority 2012, dated 2015).
pIC50: −log10 of the molar value.

Experiments:
Type in all cases: biochemical
[1] = biological target: T1, GST-tagged Tankyrase-1 (1023-1327 aa) (Homo sapiens, UniProt O95271); experiment: Tankyrase 1 autoparsylation assay (HTRF enzyme assay)
T1 construct: GST-tagged Tankyrase-1 (1023-1327 aa)
Procedure: (§1) Biochemical Activity Testing of Tankyrase 1 and 2: Autoparsylation Assay
(§2) The autoparsylation assay is run in two steps: the enzymatic reaction in which GST-tagged Tankyrase-1, resp Tankyrase-2 transferred biotinylated ADP-ribose to itself from biotinylated NAD as co-substrate and the detection reaction where a time resolved FRET between cryptate labelled anti-GST bound to the GST tag of the enzyme and Xlent® labelled-streptavidin bound the biotin-parsylation residue is analysed. The autoparsylation activity was detectable directly via the increase in HTRF signal.
(§3) The autoparsylation assay is performed as 384-well HTRF® (Cisbio, Codolet, France) assay format in Greiner low volume nb 384-well microtiter plates and is used for high throughput screen. 250 nM GST-tagged Tankyrase-1 (1023-1327 aa), respectively about 250 nM GST-tagged Tankyrase-2 (873-1166 aa) and 5 μM bio-NAD (Biolog, Life science Inst., Bremen, Germany) as co-substrate are incubated in a total volume of 5 μl (50 mM HEPES, 4 mM Mg-chloride, 0.05% Pluronic F-68, 1.4 mM DTT, 0.5% DMSO, pH 7.7) in the absence or presence of the test compound (10 dilution concentrations) for 90 min at 30° C. The reaction is stopped by the addition of 1 μl 50 mM EDTA solution. 2 μl of the detection solution (1.6 μM SA-Xlent® (Cisbio, Codolet, France), 7.4 nM Anti-GST-K® (Eu-labelled anti-GST, Cisbio, Codolet, France) in 50 mM HEPES, 800 mM KF, 0.1% BSA, 20 mM EDTA, 0.1% CHAPS, pH 7.0) are added. After 1 h incubation at room temperature the HTRF is measured with an Envision multimode reader (Perkin Elmer LAS Germany GmbH) at excitation wavelength 340 nm (laser mode) and emission wavelengths 615 nm and 665 nm. The ratio of the emission signals is determined. The full value used is the inhibitor-free reaction. The pharmacological zero value used is XAV-939 (Tocris) in a final concentration of 5 μM. The inhibitory values (IC50) are determined using either the program Symyx Assay Explorer® or Condosseo® from GeneData.

[2] = biological target: T2, GST-tagged Tankyrase-2 (873-1166 aa) (Homo sapiens, UniProt Q9H2K2); experiment: Tankyrase 2 autoparsylation assay (HTRF enzyme assay)
T2 construct: GST-tagged Tankyrase-2 (873-1166 aa)
T2 sequence (Q9H2K2 873-1166): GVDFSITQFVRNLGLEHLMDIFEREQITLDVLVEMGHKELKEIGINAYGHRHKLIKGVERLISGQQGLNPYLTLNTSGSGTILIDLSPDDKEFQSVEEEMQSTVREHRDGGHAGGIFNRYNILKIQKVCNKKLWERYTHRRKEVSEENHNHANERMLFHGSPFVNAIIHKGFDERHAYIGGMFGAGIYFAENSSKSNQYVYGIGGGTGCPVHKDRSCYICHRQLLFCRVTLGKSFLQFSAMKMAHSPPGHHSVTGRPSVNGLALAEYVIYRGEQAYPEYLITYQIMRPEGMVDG
Procedure: as §1, §2, §3

[3] = biological target: T3, GST-tagged Tnks-2 (873-1166 aa) (Homo sapiens, UniProt Q9H2K2); experiment: TNKS2 activity ELISA (autoparsylation assay)
T3 construct: GST-tagged Tnks-2 (873-1166 aa, prepared in-house); made in house
T3 sequence (Q9H2K2 873-1166): as above
Procedure: Description of the TNKS1 and TNKS2 ELISA Assay
Biochemical Activity Testing of TNKS 1 and 2: Activity ELISA (Autoparsylation Assay)
For analysis of autoparsylation activity of TNKS 1 and 2 an activity ELISA is performed: In the first step GST tagged TNKS is captured on a Glutathione coated plate. Then the activity assay with biotinylated NAD is performed in the absence/presence of the compounds. During the enzymatic reaction GST tagged TNKS transfers biotinylated ADP-ribose to itself from biotinylated NAD as co-substrate. For the detection streptavidin-HRP conjugate is added that binds to the biotinylated TNKS and is thereby captured to the plates. The amount of biotinylated resp. autoparsylated TNKS is detected with a luminescence substrate for HRP. The level of the luminescence signal correlats directly with the amount of autoparsylated TNKS and therefore with activity of TNKS.
The activity ELISA is performed in 384 well Glutathione coated microtiter plates (Express capture Glutathione coated plate, Biocat, Heidelberg, Germany). The plates are pre-equilibrated with PBS. Then the plates are incubated with 50 μl 20 ng/well GST-tagged Tnks-1 (1023-1327 aa, prepared in-house), respectively GST-tagged Tnks-2 (873-1166 aa, prepared in-house) in assay buffer (50 mM HEPES, 4 mM Mg-chloride, 0.05% Pluronic F-68, 2 mM DTT, pH 7.7) overnight at 4° C. The plates are washed 3 times with PBS-Tween-20. The wells are blocked by incubation at room temperature for 20 minutes with 50 μl blocking buffer (PBS, 0.05% Tween-20, 0.5% BSA). Afterwards the plates are washed 3 times with PBS-Tween-20. The enzymatic reaction is performed in 50 μl reaction solution (50 mM HEPES, 4 mM Mg-chloride, 0.05% Pluronic F-68, 1.4 mM DTT, 0.5% DMSO, pH 7.7) with 10 μM bio-NAD (Biolog, Life science Inst., Bremen, Germany) as co-substrate in the absence or presence of the test compound (10 dilution concentrations) for 1 hour at 30° C. The reaction is stopped by 3 times washing with PBS-Tween-20. For the detection 50 μl of 20 ng/μl Streptavidin, HRP conjugate (MoBiTec, Göttingen, Germany) in PBS/0.05%Tween-20/0.01%BSA are added and the plates are incubated for 30 minutes at room temperature. After three times washing with PBS-Tween-20 50 μl of SuperSignal ELISA Femto Maximum sensitivity substrate solution (ThermoFisherScientific (Pierce), Bonn, Germany) are added. Following a 1 minute incubation at room temperature luminescence signals are measured with an Envision multimode reader (Perkin Elmer LAS Germany GmbH) at 700 nm. The full value used is the inhibitor-free reaction. The pharmacological zero value used is XAV-939 (Tocris) in a final concentration of 5 μM. The inhibitory values (IC50) are determined using either the program Symyx Assay Explorer® or Condosseo® from GeneData.

T1 sequence (O95271 1023-1327): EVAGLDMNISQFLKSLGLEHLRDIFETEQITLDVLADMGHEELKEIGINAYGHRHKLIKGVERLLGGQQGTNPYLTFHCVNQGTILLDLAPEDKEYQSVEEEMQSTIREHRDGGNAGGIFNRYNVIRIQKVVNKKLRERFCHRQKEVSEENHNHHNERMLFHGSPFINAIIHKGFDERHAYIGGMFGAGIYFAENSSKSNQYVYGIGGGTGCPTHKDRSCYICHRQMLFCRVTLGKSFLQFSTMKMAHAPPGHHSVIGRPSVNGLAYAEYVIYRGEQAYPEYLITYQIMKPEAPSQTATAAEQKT

Compound	pIC50 [1]	pIC50 [2]	pIC50 [3]
CC(C)(OCCO)c1ccc(-c2nn3cccc3c(=O)[nH]2)cc1 [Compound A15, 2-{4-[1-(2-hydroxy-ethoxy)-1-methyl-ethyl]-phenyl}-3H-pyrrolo[2,1-f][1,2,4]triazin-4-one]	> 6.52	> 6.52	> 6.52
CC(C)(O)c1ccc(-c2nn3cccc3c(=O)[nH]2)cc1 [Compound A5, 2-[4-(1-hydroxy-1-methyl-ethyl)-phenyl]-3H-pyrrolo[2,1-f][1,2,4]triazin-4-one]	> 6.52	> 6.52	> 6.52
CCC(O)(CC)c1ccc(-c2nn3cccc3c(=O)[nH]2)cc1 [Compound A14, 2-[4-(1-ethyl-1-hydroxy-propyl)-phenyl]-3H-pyrrolo[2,1-f][1,2,4]triazin-4-one]	> 6.52	> 6.52	> 6.52
CC(C)(O)c1ccc(-c2nn3cc(F)cc3c(=O)[nH]2)cc1 [Compound A12, 6-fluoro-2-[4-(1-hydroxy-1-methyl-ethyl)phenyl]-3H-pyrrolo[2,1-f][1,2,4]triazin-4-one]	> 6.52	> 6.52	> 6.52
CC(C)(O)c1ccc(-c2nn3cc(Cl)cc3c(=O)[nH]2)cc1 [Compound A18, 6-chloro-2-[4-(1-hydroxy-1-methyl-ethyl)-phenyl]-3H-pyrrolo[2,1-f][1,2,4]triazin-4-one]	> 6.52	> 6.52	> 6.52
O=c1[nH]c(-c2ccc(C3(O)CCCC3)cc2)nn2cccc12 [Compound A21, 2-[4-(1-hydroxy-cyclopentyl)-phenyl]-3H-pyrrolo[2,1-f][1,2,4]-triazin-4-one]	> 6.52	> 6.52	> 6.52
Cc1cc2c(=O)[nH]c(-c3ccc(C(C)(C)O)cc3)nn2c1 [Compound A11, 2-[4-(1-hydroxy-1-methyl-ethyl)phenyl]-6-methyl-3H-pyrrolo[2,1-f][1,2,4]triazin-4-one]	> 6.52	> 6.52	> 6.52
Cn1cc(-c2ccc(-c3nn4cccc4c(=O)[nH]3)cc2)cn1 [Compound A7, 2-[4-(1-methyl-1H-pyrazol-4-yl)-phenyl]-3H-pyrrolo[2,1-f][1,2,4]triazin-4-one]	> 6.52	5.52 to 6.52	> 6.52
Cc1cc2c(=O)[nH]c(-c3ccc(-c4cnn(C)c4)cc3)nn2c1 [Compound A13, 6-methyl-2-[4-(1-methylpyrazol-4-yl)phenyl]-3H-pyrrolo-[2,1-f][1,2,4]triazin-4-one]	> 6.52	> 6.52	> 6.52
